The results in this text go back to patent publication US10532018B2, “Method of whitening skin using tranexamic acid-peptide having skin whitening activity” (ANPEP INC., priority 2016, dated 2020).

One data set has as its system B16F1 cells. As to the kind of experiment: Screening of tranexamic acid-peptides: intracellular melanin production in α-MSH-treated melanocytes. The settings on record: α-MSH 20 μg/mL, 3 days, intracellular melanin at 490 nm; Control (No Treatment) = 100; test concentration not stated (1-250 μg/mL tested). The format is cell-based, mouse. The protocol:
B16F1 cells, which are mouse melanocytes, were cultured in Dulbecco's modified Eagle's media (DMEM, Sigma), to which 10% fetal bovine serum (FBS, Sigma) was added, under 37° C. CO2 conditions. The cells were cultured in a 24-well plate at a concentration of 1×10^5 cells/well, and the attachment of cells was confirmed. Then, the control group was not treated with anything but only a solvent was added thereto, whereas a-MSH (20 μg/mL) was added to the positive control group. The remaining dishes were treated with α-MSH (20 μg/mL), 40 kinds of tranexamic acid-peptides, and the control group with Arbutin and AA2G, to a concentration of 1 μg/mL, 10 μg/mL, 100 μg/mL, and 250 μg/mL, respectively. Test materials were added to each dish and cultured for 3 days. After 3 days, the culture was removed by centrifugation, and the cells were lysed and intracellular melanin was collected, and observed at 490 nm to measure the amount of intracellular melanin production.
40 kinds of tranexamic acid-peptides were treated according to concentration, and their inhibitory effect against melanin production was measured.
Take `NC[C@H]1CC[C@H](C(=O)O)CC1` [TXA, tranexamic acid]: the “α-MSH Inhibitory Ability (%)” value is 45%.

For the compound Tranexamil-AA [Dipeptide-26 AA], the “α-MSH Inhibitory Ability (%)” value is 92%.

For the compound Tranexamil-AH [Dipeptide-11 AH], the “α-MSH Inhibitory Ability (%)” value is 82%.

In the case of Tranexamil-AR [Dipeptide-31 AR], the “α-MSH Inhibitory Ability (%)” value is reported as 93%.

As to Tranexamil-AS [Dipeptide-1 AS], the “α-MSH Inhibitory Ability (%)” value turned out to be 98%.

Regarding Tranexamil-AT [Dipeptide-2 AT], the “α-MSH Inhibitory Ability (%)” value turned out to be 88%.

For the compound Tranexamil-CC [Dipeptide-12 CC], the “α-MSH Inhibitory Ability (%)” value is 83%.

Consider Tranexamil-CG [Dipeptide-39 CG], for which the “α-MSH Inhibitory Ability (%)” value worked out at 92%.

With Tranexamil-EC [Dipeptide-20 EC], the “α-MSH Inhibitory Ability (%)” value came out at 61%.

As to Tranexamil-ES [Dipeptide-5 ES], the “α-MSH Inhibitory Ability (%)” value is reported as 80%.

In the case of Tranexamil-ET [Dipeptide-38 ET], the “α-MSH Inhibitory Ability (%)” value is 52%.

For the compound Tranexamil-GH [Dipeptide-9 GH], the “α-MSH Inhibitory Ability (%)” value was found to be 70%.

Take Tranexamil-GK [Dipeptide-29 GK]: the “α-MSH Inhibitory Ability (%)” value was found to be 96%.

For Tranexamil-GP [Dipeptide-4 GP], the “α-MSH Inhibitory Ability (%)” value came out at 80%.

Regarding Tranexamil-HA [Dipeptide-28 HA], the “α-MSH Inhibitory Ability (%)” value is 87%.

In the case of Tranexamil-KD [Dipeptide-16 KD], the “α-MSH Inhibitory Ability (%)” value was 81%.

Consider Tranexamil-KK [Dipeptide-6 KK], for which the “α-MSH Inhibitory Ability (%)” value amounted to 83%.

On to Tranexamil-KV [Dipeptide-30 KV], for which the “α-MSH Inhibitory Ability (%)” value was determined as 83%.

Consider Tranexamil-MA [Dipeptide-10 MA], for which the “α-MSH Inhibitory Ability (%)” value was determined as 56%.

As for Tranexamil-MY [Dipeptide-8 MY], the “α-MSH Inhibitory Ability (%)” value is recorded as 78%.

In the case of Tranexamil-NA [Dipeptide-17 NA], the “α-MSH Inhibitory Ability (%)” value came to 79%.

For the compound Tranexamil-NT [Dipeptide-40 NT], the “α-MSH Inhibitory Ability (%)” value was determined as 84%.

Tranexamil-PF [Dipeptide-22 PF]: the “α-MSH Inhibitory Ability (%)” value is 89%.

Take Tranexamil-PP [Dipeptide-35 PP]: the “α-MSH Inhibitory Ability (%)” value was found to be 85%.

Take Tranexamil-PQ [Dipeptide-33 PQ]: the “α-MSH Inhibitory Ability (%)” value is reported as 71%.

With Tranexamil-QG [Dipeptide-34 QG], the “α-MSH Inhibitory Ability (%)” value was 85%.

As to Tranexamil-RP [Dipeptide-32 RP], the “α-MSH Inhibitory Ability (%)” value is reported as 87%.

As for Tranexamil-SA [Dipeptide-13 SA], the “α-MSH Inhibitory Ability (%)” value is 81%.

In the case of Tranexamil-SS [Dipeptide-19 SS], the “α-MSH Inhibitory Ability (%)” value is 80%.

With Tranexamil-SV [Dipeptide-37 SV], the “α-MSH Inhibitory Ability (%)” value is 64%.

With Tranexamil-TA [Dipeptide-21 TA], the “α-MSH Inhibitory Ability (%)” value is recorded as 76%.

For the compound Tranexamil-TS [Dipeptide-18 TS], the “α-MSH Inhibitory Ability (%)” value is on record as 75%.

Regarding Tranexamil-VP [Dipeptide-25 VP], the “α-MSH Inhibitory Ability (%)” value is recorded as 69%.

Take Tranexamil-VR [Dipeptide-36 VR]: the “α-MSH Inhibitory Ability (%)” value was found to be 70%.

Regarding Tranexamil-VV [Dipeptide-24 VV], the “α-MSH Inhibitory Ability (%)” value stood at 72%.

As for Tranexamil-WA [Dipeptide-14 WA], the “α-MSH Inhibitory Ability (%)” value is listed as 65%.

As for Tranexamil-WE [Dipeptide-15 WE], the “α-MSH Inhibitory Ability (%)” value was 78%.

The subject of a further data set is skin pigmentation (melanin index). As to the kind of experiment: Clinical test of creams: skin pigmentation by Mexameter. It counts as in vivo, human. Particulars: 54 women, creams with 1% tranexamic acid-dipeptide or tranexamic acid, 2 times a day. The text has this: In particular, a cream containing tranexamic acid was used as the positive control group and the standard base cream was used as the negative control group.
The face of each subject was divided into two parts vertically and the two kinds of creams prepared above were applied to each face. The subjects were required to continuously use the creams in the morning and evening, 2 times a day for 8 weeks after washing the face.
For the objective evaluation of changes in skin pigmentation before and after the use of the creams, the changes in pigmentation were measured using the Mexameter (CK, Germany) before the use of the creams, 2 weeks, 4 weeks, 6 weeks, and 8 weeks after the use of the creams.
As a result of the above experiment, the tranexamic acid-dipeptide with a greater effect between the two kinds of tranexamic acid-dipeptides, was selected and, as an attempt to reduce the content in the cream, a cream containing 0.5% tranexamic acid-dipeptide was prepared. Ten women subjects were collected and the 8-week clinical experiment was performed in the same manner as described above.
Regarding `NC[C@H]1CC[C@H](C(=O)O)CC1` [TXA, tranexamic acid], the “decrease of the melanin index after 8 weeks” value came to 11.4%.

The data set is the same for the next values; noted with them: ten women, cream with 0.5% tranexamic acid-dipeptide or tranexamic acid, 2 times a day.
As for `NC[C@H]1CC[C@H](C(=O)O)CC1` [TXA, tranexamic acid], the “decrease of the melanin index after 8 weeks” value was 10.2%.

Another data set relates to mouse melanocytes. As to the kind of experiment: Whitening effect: melanin production in α-MSH-treated melanocytes by visual inspection. The format is cell-based. The settings on record: images of melanocytes, similar concentrations, 3 days. The protocol: According to a preferred embodiment of the present invention, the peptides of the present invention […] the melanin production in a concentration-dependent manner. […] Additionally, when cells were treated with 4 kinds of the tranexamic acid-peptides; the peptides, to which tranexamic acid was not bound; Arbutin; and AA2G at various concentrations (1μ, 10μ, 100μ, and 250μ), cultured for 3 days, and the absorbance of the cultures were measured at 490 nm and analyzed.
Tranexamic acid-peptides were treated according to concentration and their inhibitory effect against melanin production was measured. The mouse melanocytes were cultured in Dulbecco's modified Eagle's media (DMEM, Sigma) containing 10% fetal bovine serum ([…], Sigma) under 37° C. CO2 conditions.
The cells were cultured in a 24-well plate at a concentration of 1×10^5 cells/well, and the attachment of cells was confirmed. Then, the control group was not treated with anything but only a solvent was added thereto, whereas a-MSH ([…]) was added to the positive control group. The remaining dishes were treated with α-MSH (20 μg/mL), 4 kinds of tranexamic acid-peptides, and the control group with Arbutin and AA2G, to a concentration of 1 μg/mL, 10 μg/mL, 100 μg/mL, and 250μ), respectively. Test materials were added to each dish and cultured for 3 days. […]
`OC[C@H]1O[C@@H](Oc2ccc(O)cc2)[C@H](O)[C@@H](O)[C@@H]1O` [Arbutin]: the “cell number compared to α-MSH treatment” value is “rapidly decreased”.
